According to article PMC6700280, “Identification of Novel 3-Hydroxy-pyran-4-One Derivatives as Potent HIV-1 Integrase Inhibitors Using in silico Structure-Based Combinatorial Library Design Approach” (Frontiers in Chemistry, 2019):
Like-named read-outs stand apart in the source and are kept apart here.

Key:
[1] = biological target: T1, HIV-1 IN (Human immunodeficiency virus type 1 group M subtype B, UniProt P04585); test: Overall HIV-1 IN integration assay (ELISA); type: biochemical
[2] = test system: HIV-1; test: MT-4/MTT anti-HIV assay (HIV-induced cytopathic effect); type: cell-based; conditions: Human immunodeficiency virus 1, MT4; MT-4 cells; read-out: HIV-1 activity inhibition EC50
Procedure: The inhibitory effect of antiviral drugs on the HIV-induced cytopathic effect (CPE) in human lymphocyte MT-4 cell culture was determined by the MT-4/MTT-assay (Pauwels et al., [1988]). This assay is based on the reduction of the yellow colored 3-(4,5-dimethylthiazol-2-yl)-2,5-diphenyltetrazolium bromide (MTT) by mitochondrial dehydrogenase of metabolically active cells to a blue formazan derivative, which can be measured spectrophotometrically. The 50% cell culture infective dose of the HIV strains was determined by titration of the virus stock using MT-4 cells. For the drug susceptibility assays, MT-4 cells were infected with 100–300 50% cell culture infective doses of the HIV strains in the presence of 5-fold serial dilutions of the antiviral drugs. The concentration of the compound achieving 50% protection against the CPE of HIV, which is defined as the 50% effective concentration (EC50), was determined. In parallel, the concentration of the compound destroying 50% of the MT-4 cells, which is defined as the 50% cytotoxic concentration (CC50), was determined as well.

[3] = MT-4/MTT cytotoxicity assay; type: cell-based, human; conditions: human, MT-4 cells; read-out: Cellular toxicity CC50
Procedure: (§1) The inhibitory effect of antiviral drugs on the HIV-induced cytopathic effect (CPE) in human lymphocyte MT-4 cell culture was determined by the MT-4/MTT-assay (Pauwels et al., [1988]). […] The 50% cell culture infective dose of the HIV strains was determined by titration of the virus stock using MT-4 cells. For the drug susceptibility assays, MT-4 cells were infected with 100–300 50% cell culture infective doses of the HIV strains in the presence of 5-fold serial dilutions of the antiviral drugs. […] In parallel, the concentration of the compound destroying 50% of the MT-4 cells, which is defined as the 50% cytotoxic concentration (CC50), was determined as well.

[4] = test system: MT-4 cells; test: MT-4/MTT cytotoxicity assay; type: cell-based, human
Procedure: as §1

[5] = biological target: T2, HIV-1 IN strand transfer activity (Human immunodeficiency virus type 1 group M subtype B, UniProt P04585); test: HIV-1 IN strand transfer assay (ELISA, pre-cleaved oligonucleotide substrate)
Procedure: The enzymatic integration reactions were carried out as previously described with minor modifications (Debyser et al., [2001]; Christ et al., [2011]). To determine the susceptibility of the HIV-1 IN enzyme to different compounds, an enzyme-linked immunosorbent assay (ELISA) adapted from Hwang et al. was used (Hwang et al., [2000]). The overall integration assay uses an oligonucleotide substrate for which one oligonucleotide (5′-[sequence]-3′) is labeled with biotin at the 3′ end and the other oligonucleotide (5′-[sequence]-3′) is labeled with digoxigenin at the 5′ end. For the strand transfer assay, a pre-cleaved oligonucleotide substrate (the second oligonucleotide lacks GT [underlined] at the 3′ end) was used. The IN enzyme was diluted in 750 mM NaCl, 10 mM Tris (pH: 7.6), 10% glycerol, and 1 mM β-mercaptoethanol. To perform the reaction, 4 μL of diluted IN (corresponding to a concentration of 1.6 μM) and 4 μL of annealed oligonucleotides (7 nM) were added in a final reaction volume of 40 μL containing 10 mM MgCl2, 5 mM dithiothreitol, 20 mM HEPES (pH 7.5), 5% polyethylene glycol, and 15% dimethyl sulfoxide. As such, the final concentration of IN in this assay was 160 nM. The reaction was carried out for 1 h at 37°C. Reaction products were denatured with 30 mM NaOH and detected by ELISA on avidin-coated plates.

[6] = biological target: T1, HIV-1 IN; design: method as in Sirous et al., 2019; conditions: read-out: Overall HIV-1 IN activity inhibition IC50; previously reported lead; ref Sirous et al., 2019; cited from earlier work
[7] = biological target: T2, HIV-1 IN strand transfer activity; design: method as in Sirous et al., 2019; conditions: read-out: HIV-1 IN strand transfer activity inhibition IC50; previously reported lead; ref Sirous et al., 2019; cited from earlier work
[8] = test system: HIV-1; design: method as in Sirous et al., 2019; conditions: MT-4 cells; previously reported lead; ref Sirous et al., 2019; read-out: HIV-1 activity inhibition EC50; cited from earlier work
[9] = test system: MT-4 cells; design: method as in Sirous et al., 2019; conditions: previously reported lead, cited from earlier work; for CC50: ref Sirous et al., 2019, read-out: Cellular toxicity CC50; for TI (therapeutic index, CC50/EC50 ratio): ref Sirous et al., 2019

Row | SMILES | IC50 [1] | improvement in anti-IN potency compared to HPb ([1]; vs HPb IC50 = 0.37 μM) | EC50 [2] | CC50 [3] | TI (therapeutic index, CC50/EC50 ratio) [4] | IC50 [5] | IC50 [6] | IC50 [7] | EC50 [8] | CC50 [9] | TI (therapeutic index, CC50/EC50 ratio) [9]
1 | Cc1cc(=O)c(O)c(C(=O)NCc2cc(F)cc(-c3ccccn3)c2)o1 [HPCAR-28, N-(3-Fluoro-5-(pyridin-2-yl)benzyl)-3-hydroxy-6-methyl-4-oxo-4H-pyran-2-carboxamide] | 0.065 ± 0.01 µM | 6 fold | 0.23 ± 0.18 µM | > 250 µM | >1,087 | 3.37 ± 0.38 µM |  |  |  |  | 
2 | Cc1nc(-c2cccc(CNC(=O)c3oc(C)cc(=O)c3O)c2)c[nH]1 [HPCAR-89, 3-Hydroxy-6-methyl-N-(3-(2-methyl-1H-imidazol-4-yl)benzyl)-4-oxo-4H-pyran-2 carboxamide] | 0.27 ± 0.1 µM |  | 2.34 ± 0.46 µM | > 125 µM | >53.4 | 4 ± 0.34 µM |  |  |  |  | 
3 | Cc1cc(=O)c(O)c(C(=O)NCc2cccc(-n3cccc3)c2)o1 [HPCAR-142, N-(3-(1H-Pyrrol-1-yl)benzyl)-3-hydroxy-6-methyl-4-oxo-4H-pyran-2-carboxamide] | 1.97 ± 1.06 µM |  | 4.21 ± 0.52 µM | > 85.4 µM | >20.3 | 17.49 ± 0.13 µM |  |  |  |  | 
4 | Cc1cc(=O)c(O)c(C(=O)NCc2ccc(F)cc2)o1 [HPb] |  |  |  |  |  |  | 0.37 ± 0.17 µM | 1.405 ± 0.01 µM | 1.72 ± 0.99 µM | > 250 µM | >145
5 | Cc1cc(=O)c(O)c(C(=O)NCc2ccc(Cl)cc2)o1 [HPd] |  |  |  |  |  |  | 0.7 ± 0.31 µM | 1.54 ± 0.2 µM | 1.95 ± 0.93 µM | 196 ± 4.4 µM | 100.3
6 | Cc1nnc(C(=O)NC(C)(C)c2nc(C(=O)NCc3ccc(F)cc3)c(O)c(=O)n2C)o1 [RLT, Raltegravir, reference compound] |  |  | 0.013 ± 0.008 µM | > 18.3 µM |  |  |  |  |  |  | 
